The values that follow come from patent US10041922B2, “Biochemistry based ocular toxicity assay” (priority 2015, dated 2018).

Molecules are shown by their SMILES. Where two headings read alike, the source gives them in different places.

For one data set, the system named is eye. Particulars: cited from earlier work.
The test system of data set [1] is water-soluble protein/glycoprotein test matrix.
Procedure: (§1) The macromolecule based test matrix behaves as an active agent in the assay and is capable of undergoing a measurable change when exposed to an ocular irritant. The measurable change may be a change in appearance, which can be measured by spectrophotometry. One or more standards of known toxicity are added to at least a second aliquot of the water-soluble matrix to form control solutions, to generate a calibration curve. The measurable change induced by the test substance can be compared to the measurable change induced by the standards to make an ocular toxicity prediction. For instance, test substances that induce an equal or greater reaction than a known irritant may be classified as ocular irritants. In some embodiments, the pH of the control solution may be adjusted to match the pH of the test solution, thereby controlling for pH effects and increasing accuracy. In some embodiments, a test substance which is at least partially water insoluble is added to an aliquot of a reagent comprised of one or more hydrophobic organic polymers capable of undergoing a measurable change in response to water insoluble ocular irritants. The measurable change may be a change in appearance, which can be measured by spectrophotometry. One or more standards of known toxicity are added to at least a second aliquot of the reagent to generate a calibration curve. The measurable change induced by the test substance can be compared to the measurable change induced by the standards to make an ocular toxicity prediction in the manner described above. Water-soluble and water-insoluble assays can be performed in parallel, or multiplexed, to rapidly and efficiently predict the ocular toxicity of a wide range of compounds.
(§2) In some embodiments related to the water-soluble sub-assay, the test matrix is a water-soluble active agent comprising one or more macromolecules in aqueous solution. […] In some embodiments, the water-soluble active agent comprises at least one of isoleucine, glutamine, leucine, lysine, tyrosine, valine, proline, methione, fumerase, serine, urocanate, triacyl glycerol, globulin, gammaglobulin, mucopolysaccharide, albumin, carbohydrates, lipids, saponins, conalbumin, ovalbumin, ovomucoid, mucin, egg white fractions, plant extract, cell extract, milk fractions, red blood cell extract, muscle extract, gelatin fractions, heme, aspartate, lignocerate, stearate, linolenate, benzoate, carnitine, palmate, coenzyme A, and urea. The molecules and macromolecules can be derived as crude cell or tissue extracts, or obtained individually or in part and reconstituted.
(§3) A third pretest is performed to measure the buffering power of the unknown test substance. […] Next, 125 μL or mg of test substance is added to the test tube. The pH of the mixture is recorded. The final pH is compared to the starting pH and the absolute value of the change in pH is applied as an exponent to base 10 to generate a buffering score. These pretest results are used to select specific procedures to further analyze the test substance. Compounds with a buffering score between 5 and 2 are within the MA α domain. Compounds outside of the MA α domain with buffering scores less than 100 are within the HMA α domain. Substances with a buffering score of at least 100 are within the H-test domain.
(§4) The MA α procedure is used to test unknowns that have a small buffering capacity. The MA α procedure predicts a substance's capacity for indirect denaturation of molecules across a membrane via osmotic effects, such as osmotic effects across the corneal epithelium and stroma which can damage the cornea. The MA α assay further analyzes Potential to damage tissue via excessive oxidation and reactivity, which can occur at the epithelium, stroma, conjunctiva and iris.
Data set [2] can be described thus: Water insoluble assay (Delta): optical response (OD700) of the hydrophobic polymer Δ reagent, irritation score. Particulars: TP/FN/TN based on comparison with the in vivo test results.
Procedure: Triplicate Δ Test and Δ Control cells are labeled as follows: Test Cell 40 μL; Control Cell 40 μL; Test Cell Standard A; Test Cell Standard B. The cells are placed in a rack. 40 μL aliquots of test sample are added to the three Δ positive cells. 40 μL of Standard A+ and 40 μL of Standard B+ are added to the respective triplicate cells. 40 μL of test substance is aliquoted to the True Negative cell. All test and standard cells (A+, B+, and control cells) are filled with 2 mL of Δ reagent. […] 2 mL of Δ reagent is added to a naïve Δ test cell to blank a spectrophotometer. The OD700 value is measured for all test and standard cells. Where the substance is colored or opaque, 2 mL of Δ reagent are added to a naïve control Δ cell, and the OD700 value is measured for all control cells.
Test Cell values are recorded. Control cell values are recorded. Where samples are colored or opaque Net OD700 values are obtained by subtracting the average of the control cell OD700 value from the average of the test cell OD700 value. The average of positive controls A+ and B+ are calculated.
For each unknown, an irritancy classification is ascertained by using the closest positive cell value. The highest measured value is used. The standard with the closest OD value is identified as the Closest Standard Value. The Measured Value is divided by the mean of the three Closest Standard Values. A multiplier is applied to the quotient corresponding to the designation of the Closest Standard Value. If the Closest Standard Value is A+, the multiplier is 8. […] The resulting value is the irritation score for the sample. The highest score is used to predict the irritancy of the sample.
The subject of data set [3] is water-soluble protein/glycoprotein test matrix. Kind of data set: Water soluble assay (Alpha): optical response (OD400) of the macromolecule active agent, irritation score. The settings on record: TP/FN/TN based on comparison with the in vivo test results.
Procedure: as §1, §2, §3, §4
[4] abbreviates: category of irritant from published in vivo irritancy tests (GHS).

For the compound `c1ccncc1` [Pyridine], in the data set with eye (rabbit, in vivo), the in vivo result was “Category 1”.
`CCOC(=O)C(C)C(C)=O` (stereo not shown) [Ethyl 2-methyl]: in data set [1], the “Water soluble assay (Alpha)” value turned out to be 10.9 and the “Water soluble assay (Alpha), parenthetical call versus in vivo” value was “(FN)”. Moreover, the in vivo entry with eye (rabbit, in vivo) was “Category 2B”.
Take `OCc1ccccc1` [Benzyl Alcohol]: the “water insoluble assay (Delta), parenthetical call versus in vivo” value in data set [2] was “(TP)”. Besides, in data set [3], the “Water soluble assay (Alpha), parenthetical call versus in vivo” value is “(TP)”.
`BrCCCCCCBr` [1,6-Dibromohexane]: the “water insoluble assay (Delta), parenthetical call versus in vivo” value in data set [2] is recorded as “(TN)”. In data set [3], the “Water soluble assay (Alpha), parenthetical call versus in vivo” value is “(TN)”. In addition, in the data set with eye (setting [4]), the in vivo entry is “Not Classified”.
In the case of `C=CC(=O)OCCO` [Hydroxyethyl acrylate], in data set [3], the “Water soluble assay (Alpha), parenthetical call versus in vivo” value was “(TP)”.
For `ClCCCCBr` [1-Bromo-4-chlorobutane], the “water insoluble assay (Delta), parenthetical call versus in vivo” value in data set [2] is reported as “TN)”. Further, the “Water soluble assay (Alpha), parenthetical call versus in vivo” value in data set [3] is “(TN)”. Moreover, the in vivo result with eye (setting [4]) is on record as “Not Classified”.
For the compound `O=C=Nc1ccc(Cl)c(Cl)c1` [3,4-Dichlorophenyl isocyanate], the “water insoluble assay (Delta), parenthetical call versus in vivo” value in data set [2] was “(FN)”. Also, the “Water soluble assay (Alpha), parenthetical call versus in vivo” value in data set [3] was “(TP)”.
With `O=C(Cl)C(Cl)(Cl)Cl` [Trichloroacetyl chloride], the “water insoluble assay (Delta), parenthetical call versus in vivo” value in data set [2] is recorded as “(TP)”. For the same compound, the “Water soluble assay (Alpha), parenthetical call versus in vivo” value in data set [3] is reported as “(TP)”.
`CCCCCCCCCCCC` [Dodecane]: the “water insoluble assay (Delta), parenthetical call versus in vivo” value in data set [2] was “(TN)”. Besides, the “Water soluble assay (Alpha), parenthetical call versus in vivo” value in data set [3] is “(TN)”. Moreover, the in vivo entry in the data set on eye (setting [4]) was “Not Classified”.
Regarding `CC(C)O` [2-Propanol], the “water insoluble assay (Delta), parenthetical call versus in vivo” value in data set [2] was “(FN)”. In addition, the “Water soluble assay (Alpha), parenthetical call versus in vivo” value in data set [3] was “(TP)”. Besides, the in vivo result in the data set with eye (setting [4]) is “Category 2A”.
In the case of `CO[Si](CCCNCCC[Si](OC)(OC)OC)(OC)OC` [Organofunctional Silane], in data set [1], the “Water soluble assay (Alpha)” value came to 25.53 and the “Water soluble assay (Alpha), parenthetical call versus in vivo” value is “(TP)”. The in vivo entry in the data set on eye (rabbit, in vivo) was “Category 1”.
With `NCCO` [Ethanolamine], the “water insoluble assay (Delta), parenthetical call versus in vivo” value in data set [2] is given as “(FN)”. The “Water soluble assay (Alpha), parenthetical call versus in vivo” value in data set [3] was “(TP)”. The in vivo entry in the data set on eye (setting [4]) is recorded as “Category 2B”.
Regarding `CCOC(=O)C(C)(C)O` [Ethyl a-hydroxyisobutyrate], in data set [1], the “Water soluble assay (Alpha)” value is more than 60 and the “Water soluble assay (Alpha), parenthetical call versus in vivo” value is on record as “(TP)”. For the same compound, the in vivo result with eye (rabbit, in vivo) is “Category 1”.
With `CCN(CC)CCO` [Diethylethanolamine], in data set [1], the “Water soluble assay (Alpha)” value was 53.54 and the “Water soluble assay (Alpha), parenthetical call versus in vivo” value was “(TP)”. The in vivo entry with eye (rabbit, in vivo) is “Category 1”.
As to `CN(C)CCCCCCN(C)C` [tetramethyl-1,6 hexanediame], the “water insoluble assay (Delta), parenthetical call versus in vivo” value in data set [2] is reported as “(TP)”. The “Water soluble assay (Alpha), parenthetical call versus in vivo” value in data set [3] is recorded as “(TP)”.
`CCC(C)(C)C(=O)O` [2,2-Dimethyl Butanoic Acid]: the “water insoluble assay (Delta), parenthetical call versus in vivo” value in data set [2] is given as “(FN)”. The “Water soluble assay (Alpha), parenthetical call versus in vivo” value in data set [3] is “(TP)”.
With `CCCCCCO` [1-Hexanol], the “water insoluble assay (Delta), parenthetical call versus in vivo” value in data set [2] is recorded as “(FN)”. Moreover, the “Water soluble assay (Alpha), parenthetical call versus in vivo” value in data set [3] is on record as “(TP)”. The in vivo result in the data set on eye (setting [4]) is “Category 2A”.
As to `CCCCC(CC)COC(=O)c1ccc(N(C)C)cc1` (stereo not shown) [2-Ethylhexyl 4-(dimethylamino)benzoate], in data set [2], the “water insoluble assay (Delta), parenthetical call versus in vivo” value is given as “(TN)”. Also, the “Water soluble assay (Alpha), parenthetical call versus in vivo” value in data set [3] is listed as “(TN)”. For the same compound, the in vivo entry in the data set on eye (setting [4]) was “Not Classified”.
With `CCCCCCCCN` [n-Octylamine], the “water insoluble assay (Delta), parenthetical call versus in vivo” value in data set [2] was “(TP)”. For the same compound, in data set [3], the “Water soluble assay (Alpha), parenthetical call versus in vivo” value is recorded as “(TP)”.
In the case of `CC(C)(C)CC(C)(C)c1ccc(O)cc1` [4-(1,1,3,3-Tetramethylbutyl)phenol], the “water insoluble assay (Delta), parenthetical call versus in vivo” value in data set [2] was “(FN)”. Besides, the “Water soluble assay (Alpha), parenthetical call versus in vivo” value in data set [3] was “(TP)”.
